Results from patent US5998654A, “Retinoic acid receptor antagonist compounds and methods” (Ligand Pharmaceuticals Incorporated, priority 1997, dated 1999).

Columns and labels:
Assay type in all cases: cell-based
Set-up in all cases: expressed in transfected cells; host or cells: CV-1 cells (African green monkey kidney)
RARγ [1] = biological target: T1, RARγ (Homo sapiens, UniProt P13631); experiment: co-transfection assay, antagonist activity on RARγ; conditions: CV-1 cells, in presence of known RAR agonist TTNPB; for IC50: read-out: IC50 antagonist potency, RARγ
T1 sequence (P13631 1-454): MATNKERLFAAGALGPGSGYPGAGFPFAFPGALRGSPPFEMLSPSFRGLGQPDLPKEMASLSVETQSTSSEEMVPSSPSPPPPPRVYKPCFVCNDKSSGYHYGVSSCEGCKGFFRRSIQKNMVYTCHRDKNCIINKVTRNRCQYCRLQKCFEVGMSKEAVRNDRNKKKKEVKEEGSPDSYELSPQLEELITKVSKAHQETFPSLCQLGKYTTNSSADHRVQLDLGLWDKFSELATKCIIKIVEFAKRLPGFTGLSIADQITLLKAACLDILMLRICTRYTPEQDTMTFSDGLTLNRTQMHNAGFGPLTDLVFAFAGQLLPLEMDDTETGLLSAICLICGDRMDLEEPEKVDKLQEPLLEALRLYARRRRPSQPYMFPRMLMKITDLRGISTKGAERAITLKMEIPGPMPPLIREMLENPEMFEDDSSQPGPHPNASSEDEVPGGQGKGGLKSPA
Description: (§1) This assay is described in further detail in U.S. Pat. Nos. 4,981,784 and 5,071,773, the disclosures of which are incorporated herein by reference.
(§2) In the co-transfection assay, a cloned cDNA for an IR (e.g., human RARα:, RARβ, RXRγ) under the control of a constitutive promoter (e.g., the SV 40 promoter) is introduced by transfection (a procedure to induce cells to take up foreign genes) into a background cell substantially devoid of endogenous IRs. This introduced gene directs the recipient cells to make the IR protein of interest. A second gene is also introduced (co-transfected) into the same cells in conjunction with the IR gene. This second gene, comprising the cDNA for a reporter protein, such as firefly luciferase (LUC), is controlled by an appropriate hormone responsive promoter containing a hormone response element (HRE). This reporter plasmid functions as a reporter for the transcription-modulating activity of the target IR. Thus, the reporter acts as a surrogate for the products (mRNA then protein) normally expressed by a gene under control of the target receptor and its native hormone.
(§3) The co-transfection assay can detect small molecule agonists or antagonists of target IRs. Exposing the transfected cells to an agonist ligand compound increases reporter activity in the transfected cells. This activity can be conveniently measured, e.g., by increasing luciferase production, which reflects compound-dependent, IR-mediated increases in reporter transcription. To detect antagonists, the co-transfection assay is carried out in the presence of a constant concentration of an agonist to the target IR (e.g., all-trans retinoic acid for RARα) known to induce a defined reporter signal. Increasing concentrations of a suspected antagonist will decrease the reporter signal (e.g., luciferase production). The co-transfection assay is therefore useful to detect both agonists and antagonists of specific IRs. Furthermore, it determines not only whether a compound interacts with a particular IR, but whether this interaction mimics (agonizes) or blocks (antagonizes) the effects of the native regulatory molecules on target gene expression, as well as the specificity and strength of this interaction.
CV-1 cells (African green monkey kidney fibroblasts) were cultured in the presence of Dulbecco's Modified Eagle Medium (DMEM) supplemented with 10% charcoal resin-stripped fetal bovine serum then transferred to 96-well microtiter plates one day prior to transfection.
To determine RAR and/or RXR agonist activity of the compounds of the present invention, the CV-1 cells were transiently transfected by calcium phosphate coprecipitation according to the procedure of Berger et al., 41 J. Steroid Biochem. Mol. Biol., 733 (1992) with the following receptor expressing plasmids: pRShRARα: Giguere et al., 330 Nature, 624 (1987); pRShRARβ and pRShRARγ, Ishikawa et al., 4 Mol. Endocrin., 837 (1990); pRShRXRα, Mangelsdorf et al., 345 Nature, 224 (1990); and pRSmRXRβ and pRSmRXRγ, Mangelsdorf et al., 6 Genes & Devel., 329 (1992), the disclosures of which are herein incorporated by reference. Each of these receptor expressing plasmids was co-transfected at a concentration of 5 ng/well, along with a basal reporter plasmid at 100 ng/well, the internal control plasmid pRS-β-Gal at 50 ng/well and filler DNA, pGEM at 45 ng/well.
The basal reporter plasmid D-MTV-LUC (Hollenberg and Evans, 55 Cell, 899 (1988), the disclosure of which is herein incorporated by reference) containing two copies of the TRE-palindromic response element described in Umesono et al., 336 Nature, 262 (1988), the disclosure of which is herein incorporated by reference, was used in transfections for the RARs, and the reporter plasmid CRBPIIFKLUC, which contains an RXRE (retinoid X receptor response element, as described in Mangelsdorf et al., 66 Cell, 555 (1991), the disclosure of which is herein incorporated by reference), was used in transfections for the RXRs.

RARα = biological target: T2, RARα (Homo sapiens, UniProt P10276); experiment: co-transfection assay, agonist activity on RARα; conditions: CV-1 cells; read-out: EC50 agonist potency, RARα
T2 sequence (P10276 1-462): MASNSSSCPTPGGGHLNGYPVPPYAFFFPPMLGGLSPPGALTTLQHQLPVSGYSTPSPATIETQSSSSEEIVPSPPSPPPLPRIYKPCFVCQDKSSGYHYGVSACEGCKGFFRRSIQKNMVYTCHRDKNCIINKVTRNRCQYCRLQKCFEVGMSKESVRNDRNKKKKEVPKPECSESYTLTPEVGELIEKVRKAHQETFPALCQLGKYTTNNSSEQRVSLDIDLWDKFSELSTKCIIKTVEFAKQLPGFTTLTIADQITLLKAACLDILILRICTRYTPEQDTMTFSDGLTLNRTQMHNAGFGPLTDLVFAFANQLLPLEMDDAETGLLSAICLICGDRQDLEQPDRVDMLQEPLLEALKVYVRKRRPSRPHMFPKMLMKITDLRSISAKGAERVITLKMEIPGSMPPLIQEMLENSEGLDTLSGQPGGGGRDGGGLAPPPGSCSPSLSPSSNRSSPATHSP
Description: as §1, §2, §3
(§4) CV-1 cells (African green monkey kidney fibroblasts) were cultured in the presence of Dulbecco's Modified Eagle Medium (DMEM) supplemented with 10% charcoal resin-stripped fetal bovine serum then transferred to 96-well microtiter plates one day prior to transfection. […]

RARγ [2] = biological target: T1, RARγ; experiment: co-transfection assay, agonist activity on RARγ; conditions: CV-1 cells; read-out: EC50 agonist potency, RARγ
Description: as §1, §2, §3, §4

## CCCOc1c(C(C)(C)C)cc(/C(C)=C/C=C/C(C)=C/C(=O)O)cc1C(C)(C)C [Compound 8, 2E, 4E, 6E-[7-(3,5-Di-t-butyl-4-n-propoxyphenyl)-3-methyl]-octa-2,4,6-trienoic acid]
RARγ [1]
  efficacy of antagonist, % of maximal inhibition, RARγ (in parentheses after IC50): 85%
  IC50: 0.003 µM
RARα
  EC50: > 10 µM
RARγ [2]
  EC50: > 10 µM

## CCCCCOc1c(C(C)(C)C)cc(/C(C)=C/C=C/C(C)=C/C(=O)O)cc1C(C)(C)C [Compound 9, 2E, 4E, 6E-[7-(3,5-Di-t-butyl-4-n-pentoxyphenyl)-3-methyl]-octa-2,4,6-trienoic acid]
RARγ [1]
  efficacy of antagonist, % of maximal inhibition, RARγ (in parentheses after IC50): 80%
  IC50: 0.005 µM
RARα
  EC50: > 10 µM
RARγ [2]
  EC50: > 10 µM

## CCCCOc1c(C(C)(C)C)cc(/C(C)=C/C=C/C(C)=C/C(=O)O)cc1C(C)(C)C [Compound 7, 2E, 4E, 6E-[7-(3,5-Di-t-butyl-4-n-butoxyphenyl)-3-methyl]-octa-2,4,6-trienoic acid]
RARγ [1]
  efficacy of antagonist, % of maximal inhibition, RARγ (in parentheses after IC50): 91%
  IC50: 0.002 µM
RARα
  EC50: > 10 µM
RARγ [2]
  EC50: > 10 µM

## C=C(c1ccccc1)c1cc(/C(C)=C/C=C/C(C)=C/C(=O)O)cc(C(C)(C)C)c1 [Compound 17, (2E,4E,6E)-7-[3-t-butyl-5-(1-phenyl-vinyl)-phenyl]-3-methyl-octa-2,4,6-trienoic acid]
RARγ [1]
  efficacy of antagonist, % of maximal inhibition, RARγ (in parentheses after IC50): 85%
  IC50: 0.002 µM
RARα
  EC50: > 10 µM
RARγ [2]
  EC50: > 10 µM
